Reference: US10494377B1, “Bergenin lipoic acid ester with antioxidant activity and a method of preparing the same” (SHAANXI UNIVERSITY OF SCIENCE AND TECHNOLOGY, priority 2018, dated 2019)

Legend:
[1] = DPPH radical scavenging activity assay; type: biochemical; conditions: for DPPH clearance rate: n = 3, 30 min, 517 nm; for scavenging effect on DPPH (in words): FIG. 1, 7.02-7020 ppm
Excerpt: The Antioxidant Activity of Bergenin Lipoic Acid Ester Measured by a DPPH Radical Scavenging Activity Assay
2,2-Diphenyl-1-picryl hydrazyl (DPPH) is an organic compound composed of a stable organic radical. In the DPPH molecule, due to the presence of multiple electron-withdrawing —NO2 and large π bonds of the benzene ring, nitrogen free radical is stabilized. Its methanol solution is purple and has a maximum absorption peak at 517 nm. After the addition of an antioxidant, DPPH captures an electron to be paired with the free electron, and the purple fades and turns into a yellow substance. The absorption at 517 nm disappears, and the degree of fading is quantitatively related to the number of electrons it captures. Based on this principle, a spectrophotometer is used to detect the change of the absorbance of the DPPH radical in the sample solution, and the ability of the sample to provide hydrogen atoms and scavenge free radicals can be measured.
Preparation of DPPH solution: measuring exact amount of 2,2-diphenyl-1-picryl hydrazyl (DPPH) and dissolving in methanol to prepare a 0.2 mmol/L DPPH solution, stored at 0° C. in dark.
Preparation of test solutions: Vc (vitamin C, positive control), bergenin lipoic acid ester (sample), bergenin (control), lipoic acid (control), and mixture of bergenin and lipoic acid (reference). The test solutions were serially diluted with acetonitrile, and four groups of controls were separately dissolved in a test tube with a certain amount of methanol to prepare the same concentration gradient as the sample.
Absorbance measurement: Take 2 mL of sample solution (Table 1, number B), add 2 mL of DPPH solution with concentration of 2*10^−4 moL/L, mix and react in the dark at room temperature for 30 min, adjust to zero with methanol, and measure at 517 nm. The absorbance Ai was simultaneously measured for the absorbance Aj of 2 mL of methanol mixed with 2 mL of the sample solution and the absorbance Ao of 2 mL of DPPH solution mixed with 2 mL of acetonitrile (The experimental results are shown in Table 2).
Clearance calculation: clearance rate (%) [1−(Ai−Aj)/Ao]*100%

[2] = Takahashi et al. 2003; cited from earlier work
[3] = Takahashi et al. 2003; cited from earlier work; remark: listed apart in the source

Row | SMILES | DPPH clearance rate ([1]; 7.02 ppm) [%] | DPPH clearance rate ([1]; 140.4 ppm) [%] | DPPH clearance rate ([1]; 702 ppm) [%] | DPPH clearance rate ([1]; 2808 ppm) [%] | DPPH clearance rate ([1]; 7020 ppm) [%] | scavenging effect on DPPH (in words) [1] | scavenging effect on DPPH (in words) ([1]; listed as bergenin lipoic acid ester) | scavenging ability compared with Vc (in words) ([1]; concentration above 2808 ppm) | scavenging effect on DPPH free radicals (in words) [2] | scavenging effect on superoxide anions (in words) [3]
1 | COc1c(O)cc2c(c1O)C1OC(COC(=O)CCCCC3CCSS3)C(O)C(O)C1OC2=O (stereo not shown) [B, Bergenin lipoic acid ester] | 27.56 | 60.83 | 76.34 | 94.92 | 97.64 | better than E | significant scavenging effect on DPPH in a concentration-dependent manner | close to the scavenging ability of Vc | – | –
2 | COc1c(O)cc2c(c1O)[C@@H]1O[C@H](CO)[C@@H](O)[C@H](O)[C@H]1OC2=O [C, Bergenin] | 15.57 | 19.79 | 30.98 | 54.56 | 90.01 | – | – | – | good scavenging effect | good scavenging effect
3 | O=C(O)CCCCC1CCSS1 (stereo not shown) [D, Lipoic acid] | 20.40 | 28.64 | 39.66 | 60.54 | 82.95 | – | – | – | – | –
4 | O=C1O[C@H]([C@@H](O)CO)C(O)=C1O [Vc, Vitamin C] | 82.01 | 95.17 | 95.70 | 99.90 | 99.90 | – | – | – | – | –
